ChEMBL document CHEMBL3045613, “Effects of sublethal glyphosate rates on fresh market tomato” (Crop Prot, 2007)

Assays:
Type in all cases: organism-based
Set-up in all cases: scale not given: the % may be the effect or the level left
Solanum lycopersicum [1] = assay: Phytotoxicity against Solanum lycopersicum (tomato) plant assessed as decrease in vigour at 25 mg/L applied 1 days prior to transplantation for 10 secs measured after 4 weeks relative to untreated-control; settings: in vivo
Solanum lycopersicum [2] = assay: Phytotoxicity against Solanum lycopersicum (tomato) plant assessed as decrease in plant height at 200 mg/L applied 1 days prior to transplantation for 10 secs measured after 4 weeks relative to untreated-control; settings: in vivo
Solanum lycopersicum [3] = assay: Phytotoxicity against Solanum lycopersicum (tomato) plant assessed as decrease in vigour at 100 mg/L applied 1 days prior to transplantation for 10 secs measured after 2 weeks relative to untreated-control; settings: in vivo
Solanum lycopersicum [4] = assay: Phytotoxicity against Solanum lycopersicum (tomato) plant assessed as decrease in marketable yeild at 150 mg/L applied 1 days prior to transplantation for 10 secs measured after 4 weeks relative to untreated-control; settings: in vivo
Solanum lycopersicum [5] = assay: Phytotoxicity against Solanum lycopersicum (tomato) plant assessed as decrease in vigour at 100 mg/L applied 1 days prior to transplantation for 10 secs measured after 4 weeks relative to untreated-control; settings: in vivo
Solanum lycopersicum [6] = assay: Phytotoxicity against Solanum lycopersicum (tomato) plant assessed as decrease in vigour at 150 to 200 mg/L applied 1 days prior to transplantation for 10 secs measured after 4 weeks relative to untreated-control; settings: in vivo
Solanum lycopersicum [7] = assay: Phytotoxicity against Solanum lycopersicum (tomato) plant assessed as decrease in plant height at 25 mg/L applied 1 days prior to transplantation for 10 secs measured after 4 weeks relative to untreated-control; settings: in vivo
Solanum lycopersicum [8] = assay: Phytotoxicity against Solanum lycopersicum (tomato) plant assessed as decrease in vigour at 25 mg/L applied 1 days prior to transplantation for 10 secs measured after 2 weeks relative to untreated-control; settings: in vivo
Solanum lycopersicum [9] = assay: Phytotoxicity against Solanum lycopersicum (tomato) plant assessed as decrease in plant height at 150 mg/L applied 1 days prior to transplantation for 10 secs measured after 4 weeks relative to untreated-control; settings: in vivo, other
Solanum lycopersicum [10] = assay: Phytotoxicity against Solanum lycopersicum (tomato) plant assessed as decrease in vigour at 50 mg/L applied 1 days prior to transplantation for 10 secs measured after 4 weeks relative to untreated-control; settings: in vivo
Solanum lycopersicum [11] = assay: Phytotoxicity against Solanum lycopersicum (tomato) plant assessed as decrease in plant height at 100 mg/L applied 1 days prior to transplantation for 10 secs measured after 4 weeks relative to untreated-control; settings: in vivo
Solanum lycopersicum [12] = assay: Phytotoxicity against Solanum lycopersicum (tomato) plant assessed as decrease in marketable yeild at 25 mg/L applied 1 days prior to transplantation for 10 secs measured after 4 weeks relative to untreated-control; settings: in vivo

O=C(O)CNCP(=O)(O)O [GLYPHOSATE]
Activity (Solanum lycopersicum [1]): 36% | Activity (Solanum lycopersicum [2]): 75% | Activity (Solanum lycopersicum [3]): <= 50% | Activity (Solanum lycopersicum [4]): > 98% | Activity (Solanum lycopersicum [5]): 58% | Activity (Solanum lycopersicum [6]): <= 15% | Activity (Solanum lycopersicum [7]): 29% | Activity (Solanum lycopersicum [8]): 78% | Activity (Solanum lycopersicum [9]): 72% | Activity (Solanum lycopersicum [10]): 36% | Activity (Solanum lycopersicum [11]): 65% | Activity (Solanum lycopersicum [12]): 41%
